Test results taken from patent US20250171457A1, “NITROGEN-CONTAINING HETEROCYCLIC COMPOUND HAVING NRF2 ACTIVATION EFFECT” (CHUGAI SEIYAKU KABUSHIKI KAISHA, priority 2022, published 2025).

System: Nrf2 transcriptional activity (pARE-Luc reporter) in HepG2 cells
Assay: In vitro Nrf2 transcriptional activity measurement by ARE-dependent reporter assay in HepG2 cell
Type: cell-based, human
Conditions: Homo sapiens; HepG2 cells transfected with pARE-Luc, 4 hours at 37° C.; luciferase activity of Example 1-54 or Example 17-23 at 3.75 μM defined as 100%
Summary of the method: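 HepG2 cells transfected with pGL4.37 (pARE-Luc), replated onto compound and incubated 4 h at 37° C; luciferase read by Bright-Glo luminescence. Response normalized to 100% set by a reference compound at 3.75 μM; EC50 from dose-response curve.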

| SMILES | EC50 |
| --- | --- |
| CN1CCN(c2cc(Cl)c(C(=O)N3COc4c(cccc4-c4cc(N5C6CCC5COC6)c(C(=O)O)cc4F)C3)c(Cl)c2)CC12CC2 [Compound 20-9, 4-[3-[2,6-Dichloro-4-(4-methyl-4,7-diazaspiro[2.5]octan-7-yl)benzoyl]-2,4-dihydro-1,3-benzoxazin-8-yl]-5-fluoro-2-(3-oxa-8-azabicyclo[3.2.1]octan-8-yl)benzoic acid] | 14 nM |
| O=C(O)c1cc(F)c(-c2cccc3c2OCN(C(=O)c2c(Cl)cc(N4CC(OC(F)F)C4)cc2Cl)C3)cc1N1C2CCC1COC2 [Compound 1-10, 4-[3-[2,6-Dichloro-4-[3-(difluoromethoxy)azetidin-1-yl]benzoyl]-2,4-dihydro-1,3-benzoxazin-8-yl]-5-fluoro-2-(3-oxa-8-azabicyclo[3.2.1]octan-8-yl)benzoic acid] | 3.1 nM |
| CN(c1cc(-c2cccc3c2OCN(C(=O)c2c(Cl)cc(-c4cnn(C)c4)cc2Cl)C3)c(F)cc1C(=O)O)C1COC1 [Compound 12-4, 4-[3-[2,6-Dichloro-4-(1-methylpyrazol-4-yl)benzoyl]-2,4-dihydro-1,3-benzoxazin-8-yl]-5-fluoro-2-[methyl(oxetan-3-yl)amino]benzoic acid] | 15 nM |
| CN1CC2CCC(C1)N2c1cc(Cl)c(C(=O)N2COc3c(cccc3-c3cc(N4C5CCC4COC5)c(C(=O)O)cc3F)C2)c(Cl)c1 [Compound 9-8, 4-[3-[2,6-Dichloro-4-(3-methyl-3,8-diazabicyclo[3.2.1]octan-8-yl)benzoyl]-2,4-dihydro-1,3-benzoxazin-8-yl]-5-fluoro-2-(3-oxa-8-azabicyclo[3.2.1]octan-8-yl)benzoic acid] | 3.5 nM |
| O=C(O)c1cc(F)c(-c2cccc3c2OCN(C(=O)c2c(Cl)cc(N4CC5(CC(OC6COC6)C5)C4)cc2Cl)C3)cc1N1C2CCC1COC2 [Compound 6-10, 4-[3-[2,6-Dichloro-4-[6-(oxetan-3-yloxy)-2-azaspiro[3.3]heptan-2-yl]benzoyl]-2,4-dihydro-1,3-benzoxazin-8-yl]-5-fluoro-2-(3-oxa-8-azabicyclo[3.2.1]octan-8-yl)benzoic acid] | 3.7 nM |
| CN1CCN(c2cc(Cl)c(C(=O)N3COc4c(cccc4-c4cc(N5C6CCC5COC6)c(C(=O)O)cc4F)C3)c(Cl)c2)CC1 [Compound 4-60, 4-[3-[2,6-Dichloro-4-(4-methylpiperazin-1-yl)benzoyl]-2,4-dihydro-1,3-benzoxazin-8-yl]-5-fluoro-2-(3-oxa-8-azabicyclo[3.2.1]octan-8-yl)benzoic acid] | 7.5 nM |
| COC1(OC)CN(c2cc(Cl)c(C(=O)N3COc4c(cccc4-c4cc(N5C6CCC5COC6)c(C(=O)O)cc4F)C3)c(Cl)c2)[C@@H]1C [Compound 5-12, 4-[3-[2,6-Dichloro-4-[(2R)-3,3-dimethoxy-2-methylazetidin-1-yl]benzoyl]-2,4-dihydro-1,3-benzoxazin-8-yl]-5-fluoro-2-(3-oxa-8-azabicyclo[3.2.1]octan-8-yl)benzoic acid] | 2.1 nM |
| COc1cc(C(=O)N2COc3c(cccc3-c3cc(N4CCOCC4)c(C(=O)O)cc3F)C2)c(Cl)cc1-c1ccncc1 [Compound 2-5, 4-[3-(2-Chloro-5-methoxy-4-pyridin-4-ylbenzoyl)-2,4-dihydro-1,3-benzoxazin-8-yl]-5-fluoro-2-morpholin-4-ylbenzoic acid] | 2.4 nM |
| Cn1cc(-c2cc(Cl)c(C(=O)N3COc4c(cccc4-c4cc(N5CCOCC5)c(C(=O)O)cc4F)C3)cn2)cn1 [Compound 13-10, 4-[3-[4-Chloro-6-(1-methylpyrazol-4-yl)pyridine-3-carbonyl]-2,4-dihydro-1,3-benzoxazin-8-yl]-5-fluoro-2-morpholin-4-ylbenzoic acid] | 17 nM |
| CC(C)(O)CN1CCN(c2cc(Cl)c(C(=O)N3COc4c(cccc4-c4cc(N5C6CCC5COC6)c(C(=O)O)cc4F)C3)c(Cl)c2)CC1 [Compound 4-15, 4-[3-[2,6-Dichloro-4-[4-(2-hydroxy-2-methylpropyl)piperazin-1-yl]benzoyl]-2,4-dihydro-1,3-benzoxazin-8-yl]-5-fluoro-2-(3-oxa-8-azabicyclo[3.2.1]octan-8-yl)benzoic acid] | 3.1 nM |
| CC[C@H](CC(=O)O)c1cccc2c1C(=O)NN(C(=O)c1c(Cl)cc(-c3cnn(C)c3)cc1Cl)C2 [Compound 17-4, (3R)-3-[2-[2,6-Dichloro-4-(1-methylpyrazol-4-yl)benzoyl]-4-oxo-1,3-dihydrophthalazin-5-yl]pentanoic acid] | 10 nM |
| CCc1cc(C(=O)N2COc3c(cccc3-c3cc(N4CCOCC4)c(C(=O)O)cc3F)C2)c(Cl)cc1OC [Compound 18-4, 4-[3-(2-Chloro-5-ethyl-4-methoxybenzoyl)-2,4-dihydro-1,3-benzoxazin-8-yl]-5-fluoro-2-morpholin-4-ylbenzoic acid] | 3.7 nM |
| O=C(O)c1cc(F)c(-c2cccc3c2OCN(C(=O)c2c(Cl)cc(N4C5CC4CN(C4COC4)C5)cc2Cl)C3)cc1N1C2CCC1COC2 [Compound 20-6, 4-[3-[2,6-Dichloro-4-[3-(oxetan-3-yl)-3,6-diazabicyclo[3.1.1]heptan-6-yl]benzoyl]-2,4-dihydro-1,3-benzoxazin-8-yl]-5-fluoro-2-(3-oxa-8-azabicyclo[3.2.1]octan-8-yl)benzoic acid] | 48 nM |
| CCOC1CN(c2cc(Cl)c(C(=O)N3COc4c(cccc4-c4cc(N5C6CCC5COC6)c(C(=O)O)cc4F)C3)c(Cl)c2)C1 [Compound 6-5, 4-[3-[2,6-Dichloro-4-(3-ethoxyazetidin-1-yl)benzoyl]-2,4-dihydro-1,3-benzoxazin-8-yl]-5-fluoro-2-(3-oxa-8-azabicyclo[3.2.1]octan-8-yl)benzoic acid] | 10 nM |
| Cc1c(C(CC(=O)O)c2cccc3c2CON(C(=O)c2c(Cl)cc(-c4cnn(C)c4)cc2Cl)C3)ccc2c1nnn2C (stereo not shown) [Compound 17-16, 3-[3-[2,6-Dichloro-4-(1-methylpyrazol-4-yl)benzoyl]-1,4-dihydro-2,3-benzoxazin-8-yl]-3-(1,4-dimethylbenzotriazol-5-yl)propanoic acid] | 74 nM |
| O=C(O)c1cc(F)c(-c2cccc3c2OCN(C(=O)c2c(Cl)cc(-c4cccc5ccoc45)cc2Cl)C3)cc1N1C2CCC1COC2 [Compound 3-24, 4-[3-[4-(1-Benzofuran-7-yl)-2,6-dichlorobenzoyl]-2,4-dihydro-1,3-benzoxazin-8-yl]-5-fluoro-2-(3-oxa-8-azabicyclo[3.2.1]octan-8-yl)benzoic acid] | 31 nM |
| O=C(O)c1cc(F)c(-c2cccc3c2OCN(C(=O)c2c(Cl)cc(N4CCN(C5COC5)C5CC54)cc2Cl)C3)cc1N1C2CCC1COC2 (stereo not shown) [Compound 9-15, 4-[3-[2,6-Dichloro-4-[5-(oxetan-3-yl)-2,5-diazabicyclo[4.1.0]heptan-2-yl]benzoyl]-2,4-dihydro-1,3-benzoxazin-8-yl]-5-fluoro-2-(3-oxa-8-azabicyclo[3.2.1]octan-8-yl)benzoic acid] | 14 nM |
| COCCN1[C@H](C)CN(c2cc(Cl)c(C(=O)N3COc4c(cccc4-c4cc(N5C6CCC5COC6)c(C(=O)O)cc4F)C3)c(Cl)c2)C[C@@H]1C [Compound 8-4, 4-[3-[2,6-Dichloro-4-[meso-4-(2-methoxyethyl)-3,5-dimethylpiperazin-1-yl]benzoyl]-2,4-dihydro-1,3-benzoxazin-8-yl]-5-fluoro-2-(3-oxa-8-azabicyclo[3.2.1]octan-8-yl)benzoic acid] | 3.6 nM |
| COCC1(F)CN(c2cc(Cl)c(C(=O)N3COc4c(cccc4-c4cc(N5C6CCC5COC6)c(C(=O)O)cc4F)C3)c(Cl)c2)C1 [Compound 6-4, 4-[3-[2,6-Dichloro-4-[3-fluoro-3-(methoxymethyl)azetidin-1-yl]benzoyl]-2,4-dihydro-1,3-benzoxazin-8-yl]-5-fluoro-2-(3-oxa-8-azabicyclo[3.2.1]octan-8-yl)benzoic acid] | 2 nM |
| C[C@@H]1COCCN1c1cc(Cl)c(C(=O)N2COc3c(cccc3-c3cc(N4C5CCC4COC5)c(C(=O)O)cc3F)C2)c(Cl)c1 [Compound 1-42, 4-[3-[2,6-Dichloro-4-[(3R)-3-methylmorpholin-4-yl]benzoyl]-2,4-dihydro-1,3-benzoxazin-8-yl]-5-fluoro-2-(3-oxa-8-azabicyclo[3.2.1]octan-8-yl)benzoic acid] | 2.6 nM |
| COc1cc(C(=O)N2COc3c(cccc3-c3cc(N4CCOCC4)c(C(=O)O)cc3F)C2)c(Cl)cc1-c1cnn(C)c1 [Compound 2-6, 4-[3-[2-Chloro-5-methoxy-4-(1-methylpyrazol-4-yl)benzoyl]-2,4-dihydro-1,3-benzoxazin-8-yl]-5-fluoro-2-morpholin-4-ylbenzoic acid] | 6 nM |
| CN1CCC(COc2cc(Cl)c(C(=O)N3COc4c(cccc4-c4cc(N5CCOCC5)c(C(=O)O)cc4F)C3)c(Cl)c2)CC1 [Compound 4-48, 4-[3-[2,6-Dichloro-4-[(1-methylpiperidin-4-yl)methoxy]benzoyl]-2,4-dihydro-1,3-benzoxazin-8-yl]-5-fluoro-2-morpholin-4-ylbenzoic acid] | 2.6 nM |
| COCCN1CCCN(c2cc(Cl)c(C(=O)N3COc4c(cccc4-c4cc(N5CCOCC5)c(C(=O)O)cc4F)C3)c(Cl)c2)CC1 [Compound 4-25, 4-[3-[2,6-Dichloro-4-[4-(2-methoxyethyl)-1,4-diazepan-1-yl]benzoyl]-2,4-dihydro-1,3-benzoxazin-8-yl]-5-fluoro-2-morpholin-4-ylbenzoic acid] | 1.9 nM |
| COc1cc(C(=O)N2COc3c(cccc3-c3cc(N4C5CCC4COC5)c(C(=O)O)cc3F)C2)c(Cl)cc1N1CC(OC)C1 [Compound 1-74, 4-[3-[2-Chloro-5-methoxy-4-(3-methoxyazetidin-1-yl)benzoyl]-2,4-dihydro-1,3-benzoxazin-8-yl]-5-fluoro-2-(3-oxa-8-azabicyclo[3.2.1]octan-8-yl)benzoic acid] | 2.7 nM |
| O=C(O)c1cc(F)c(-c2cccc3c2OCN(C(=O)c2c(Cl)cc(N4CC[C@@H](O)C4)cc2Cl)C3)cc1N1CCOCC1 [Compound 4-28, 4-[3-[2,6-Dichloro-4-[(3R)-3-hydroxypyrrolidin-1-yl]benzoyl]-2,4-dihydro-1,3-benzoxazin-8-yl]-5-fluoro-2-morpholin-4-ylbenzoic acid] | 1.6 nM |
